Data: patent US5382568A, “Decapeptide having dopamine stimulating activity” (Arizona Board of Regents, priority 1993, dated 1995)
Residues, ends and D or L forms follow the SMILES beside them. No end group written: not given here.

Key:
serum LH = assay: Acute effect of intravenous injection on serum LH (radioimmunoassay); assay type: in vivo; settings: rats, intravenous 5.0 micrograms, as LH-RP-2 standard
Description: (§1) For intravenous peptide injections anesthetized rats were fitted surgically with indwelling intra-arterial cannulae 24 hours before the tests. The next day samples of arterial blood were withdrawn from the unanesthetized rats immediately before and after the injection of graded doses of the pineal antigonadotropin. Prolactin and LH were measured in the blood samples by standard double antibody radioimmunoassay with kits provided by the National Hormone and Pituitary Program. The acute effects of 5.0 micrograms of the antigonadotropin are illustrated in the table below:
(§2) Values for LH are expressed as the National Institutes of Health reference standard LH-RP-2. Means±S.E.M. are indicated (n=5)

serum PRL = assay: Acute effect of intravenous injection on serum PRL (radioimmunoassay); assay type: in vivo; settings: rats, intravenous 5.0 micrograms
Description: as §1, §2

[1] = test system: rat hypothalamic median eminence strips; assay: Dopamine release from hypothalamic median eminence strips in vitro; settings: for Release of dopamine from rat hypothalamus in vitro (in words): median eminence strips
Description: Rat hypothalamic median eminence strips were rapidly dissected and placed in culture plates containing 100 μl of a Kreb's solution saturated with O2 in accord with the procedure described in Racke, K. and E. Muscholl, J. of Neurochemistry 46:745, 1986. The median eminence strips were maintained at 37° C. under 95% O2 /5%CO2 in a Dubnoff shaking incubator. The media were replaced after a ten minute pre-incubation period. 50 μl samples were taken at 30, 60 and 90 min of incubation for catecholamine determination, with replacement of the removed media. 20 μl of 0.1M perchloric acid were added to each sample before storage at -20°. Media contents of dopamine, norepinephrine and various indoleamine and catecholamine metabolites were determined by HPLC coupled with electrochemical detection in accord with the procedure described in Gregory, V. M., B. Larsen and B. Benson, J. of Chromatography 345:140-144,1985.

[2] = test system: pituitary secretion of LH and PRL; assay: Intravenous or intracerebroventricular injections: pituitary secretion of LH and PRL; assay type: in vivo
[3] = test system: male and female rats and mice; assay: Antigonadotropic effects after chronic daily subcutaneous injection; assay type: in vivo; settings: two to four weeks
Description: The neurotropic pineal antigonadotropin of the present invention was assayed in vivo, as is described below. Natural and synthetic analogs were injected into male and female rats and mice in graded doses. Antigonadotropic effects were assessed after a period of chronic daily subcutaneous injection in a variety of solvents/carriers, e.g. physiological saline or corn oil. […] Additionally, blood levels of the gonadal steroids (testosterone in males and estrogens in females) were reduced.

[4] = test system: anterior pituitary dopamine content; assay: Acute effect of a single subcutaneous injection on anterior pituitary dopamine content; assay type: in vivo; settings: mice; for Pituitary dopamine content: single subcutaneous injection of 25 nanograms

With `C[C@@H](O)[C@H](NC(=O)[C@H](CCCCN)NC(=O)[C@@H](NC(=O)[C@@H](NC(=O)[C@@H]1CCCN1C(=O)[C@H](Cc1ccccc1)NC(=O)[C@@H](N)CO)[C@@H](C)O)[C@@H](C)O)C(=O)N[C@@H](Cc1ccc(O)cc1)C(=O)N[C@@H](Cc1ccccc1)C(=O)N1CCC[C@H]1C(=O)O` [PAG (1), NH2 -Ser-Phe-Pro-Thr-Thr-Lys-Thr-Tyr-Phe-Pro-COOH] (H-SFPTTKTYFP-OH) the “Serum LH” value (serum LH; postinjection time 0') was 0.25 ng/mL, the “Serum LH” value (serum LH; postinjection time 15') was 0.21 ng/mL and the “Serum LH” value (serum LH; postinjection time 30') was 0.15 ng/mL. The “Serum LH” value (serum LH; postinjection time 45') was 0.10 ng/mL, the “Serum LH” value (serum LH; postinjection time 60') was 0.14 ng/mL and the “Serum PRL” value (serum PRL; postinjection time 0') was 100 ± 11 % of Initial Control Value. For the same molecule, the “Serum PRL” value (serum PRL; postinjection time 15') was 55 ± 6 % of Initial Control Value, the “Serum PRL” value (serum PRL; postinjection time 30') was 38 ± 6 % of Initial Control Value and the “Serum PRL” value (serum PRL; postinjection time 45') was 31 ± 4 % of Initial Control Value. The “Serum PRL” value (serum PRL; postinjection time 60') was 22 ± 5 % of Initial Control Value.

For `C[C@@H](O)[C@H](NC(=O)[C@H](CCCCN)NC(=O)[C@@H](NC(=O)[C@@H](NC(=O)[C@@H]1CCCN1C(=O)[C@H](Cc1ccccc1)NC(=O)[C@@H](N)CO)[C@@H](C)O)[C@@H](C)O)C(=O)N[C@@H](Cc1ccc(O)cc1)C(=O)N[C@@H](Cc1ccccc1)C(=O)N1CCC[C@H]1C(=O)O` [PAG (2), NH2 -Ser-Phe-Pro-Thr-Thr-Lys-Thr-Tyr-Phe-Pro-COOH] (H-SFPTTKTYFP-OH), the “Serum LH” value (serum LH; postinjection time 0') was 0.26 ng/mL, the “Serum LH” value (serum LH; postinjection time 15') was 0.20 ng/mL and the “Serum LH” value (serum LH; postinjection time 30') was 0.15 ng/mL. The “Serum LH” value (serum LH; postinjection time 45') was 0.12 ng/mL, the “Serum LH” value (serum LH; postinjection time 60') was 0.11 ng/mL and the “Release of dopamine from rat hypothalamus in vitro (in words)” value ([1]; listed as synthetic decapeptide) was “effectively stimulates the release of dopamine into the incubation medium”. For the same molecule, the “Serum PRL” value (serum PRL; postinjection time 0') was 100 ± 8 % of Initial Control Value, the “Serum PRL” value (serum PRL; postinjection time 15') was 44 ± 6 % of Initial Control Value and the “Serum PRL” value (serum PRL; postinjection time 30') was 30 ± 3 % of Initial Control Value. The “Serum PRL” value (serum PRL; postinjection time 45') was 25 ± 3 % of Initial Control Value and the “Serum PRL” value (serum PRL; postinjection time 60') was 32 ± 6 % of Initial Control Value.

With “SFPTTKTYFP [PAG, NH2 -Ser-Phe-Pro-Thr-Thr-Lys-Thr-Tyr-Phe-Pro-COOH]” the “Dopamine released into the incubation medium (accumulative)” value ([1]; 10^-5 M, incubation time 30') was 35.2 ± 7.6 pg/µL, the “Dopamine released into the incubation medium (accumulative)” value ([1]; 10^-5 M, incubation time 60') was 100.2 ± 13 pg/µL and the “Dopamine released into the incubation medium (accumulative)” value ([1]; 10^-5 M, incubation time 90') was 182.9 ± 13.7 pg/µL. For the same molecule, the “Dopamine released into the incubation medium (accumulative)” value ([1]; 10^-7 M, incubation time 30') was 27.2 ± 2.1 pg/µL, the “Dopamine released into the incubation medium (accumulative)” value ([1]; 10^-7 M, incubation time 60') was 61.5 ± 5.3 pg/µL and the “Dopamine released into the incubation medium (accumulative)” value ([1]; 10^-7 M, incubation time 90') was 109.3 ± 10.8 pg/µL. For the same molecule, the “Release of dopamine from rat hypothalamus in vitro (in words)” value ([1]; listed as pineal antigonadotropic decapeptide) was “stimulates the release of dopamine”, the “Release of pituitary LH (pulsatile)” value ([2]; intracerebroventricular infusions) was “inhibited release of pituitary LH, reducing both the amplitude and frequency of pulsatile LH release into the blood” and the “Pituitary secretion of LH and PRL” value ([2]; intravenous or intracerebroventricular injections) was “demonstrable inhibitory effects on pituitary secretion of LH and PRL”. The “Pituitary and blood levels of gonadotropins and prolactin” value [3] was “reductions of pituitary and blood levels of gonadotropins and prolactin”, the “Pituitary, gonadal and accessory reproductive organ weights” value [3] was “significant reductions in pituitary, gonadal and accessory reproductive organ weights” and the “Anterior pituitary dopamine content (in words)” value ([4]; single injection of 25 nanograms) was “significant increase in anterior pituitary dopamine content”. For the same molecule, the Pituitary dopamine content ([4]; postinjection time 0') was 0.539 ± 0.046 nanograms per mg of pituitary, the Pituitary dopamine content ([4]; postinjection time 15') was 0.795 ± 0.064 nanograms per mg of pituitary and the Pituitary dopamine content ([4]; postinjection time 30') was 1.801 ± 0.126 nanograms per mg of pituitary.
